# “And” between values parts separate entries of the source, which are not always exact repeats. Equal values may be shown once.
# Experiments:
# [1] = system: Methylosinus trichosporium OB3b (NRRL B-11,196); assay: Methane hydroxylation and alkene epoxidation by washed cell suspensions; format: cell-based; settings: for Propylene Oxide Formed: 3.6 mg cells; for Ability to hydroxylate methane or epoxidize C2 -C4 alkenes: methanol-grown washed cells
# Experimental: (§1) The pH of the nutrient medium was adjusted to 7.0 by the addition of acid or base and 50 ml aliquots of the nutrient medium was charged into a plurality of 300 ml shake flasks. […] The isolates had been maintained on agar plates under an atmosphere of methane and air having a 1:1 v/v gas ratio which had been transferred every two weeks. The gaseous phase of the inoculated flasks was then replaced with a gas mixture comprised of methane and air having a ratio of 1:1 on a v/v basis. The inoculated flasks were sealed air tight and were incubated on a rotary shaker of orbital radius 2.5 cm at 250 rpm and at 30° C. for two days until the turbidity in the medium had developed.
# (§2) The cells were harvested by centrifugation at 10,000 ×g at 4° C. for 30 minutes. The cell pellet was washed twice with a 0.15 M phosphate buffer at a pH of 7.0 (containing 0.002 M MgCl2). The washed cells were then suspended in a 0.15 M phosphate buffer at pH 7.0.
# […] The gaseous phase of the vials was removed with vacuum and then was replaced with a gas mixture of alkene and oxygen at a 1:1 v/v ratio. It was then incubated at 30° C. on a rotary shaker at 300 rpm. Samples of product (3 μl) were withdrawn periodically with a microsyringe and the products were analyzed by gas chromatography (ionization flame detector column).
# [2] = system: Methylosinus sporium 5 (NRRL B-11,197); assay: as above; format: cell-based; settings: methane-grown washed cells, 30° C.
# Experimental: as §1, §2
# A 0.5 ml aliquot of each washed cell suspension (2 mg cells) was put into 10 ml vials at 4° C. which were sealed with a rubber cap. […] It was then incubated at 30° C. on a rotary shaker at 300 rpm. Samples of product (3 μl) were withdrawn periodically with a microsyringe and the products were analyzed by gas chromatography (ionization flame detector column).
# [3] = system: Methylocystis parvus OBBP (NRRL B-11,198); assay: as above; format: cell-based; settings: for Ability to hydroxylate methane or epoxidize C2 -C4 alkenes: methanol-grown washed cells
# Experimental: as §1, with “The gaseous phase of the inoculated flasks was then replaced with a gas mixture comprised of methane and air having a ratio of 1:1 on a v/v basis.” left out
# as §2
# (§3) A 0.5 ml aliquot of each washed cell suspension (2 mg cells) was put into 10 ml vials at 4° C. which were sealed with a rubber cap. The gaseous phase of the vials was removed with vacuum and then was replaced with a gas mixture of alkene and oxygen at a 1:1 v/v ratio. It was then incubated at 30° C. on a rotary shaker at 300 rpm. Samples of product (3 μl) were withdrawn periodically with a microsyringe and the products were analyzed by gas chromatography (ionization flame detector column).
# [4] = system: Methylomonas albus BG8 (NRRL B-11,200); assay: as above; format: cell-based; settings: methane-grown washed cells, 30° C.
# Experimental: as §1, §2, §3
# [5] = system: Methylobacterium organophilum XX (ATCC 27,886); assay: Methane hydroxylation and propylene epoxidation by washed cell suspensions; format: cell-based; settings: methane-grown washed cells, 30° C.
# Experimental: The pH of the nutrient medium was adjusted to 7.0 by the addition of acid or base and 50 ml aliquots of the nutrient medium was charged into a plurality of 300 ml shake flasks. The shake flasks were inoculated with an inoculating loop of cells from an agar plate containing homogeneous colonies of the microorganisms on the plate (the purity of the isolates were confirmed by microscopic examination). The isolates had been maintained on agar plates under an atmosphere of methane and air having a 1:1 v/v gas ratio which had been transferred every two weeks. The gaseous phase of the inoculated flasks was then replaced with a gas mixture comprised of methane and air having a ratio of 1:1 on a v/v basis. The inoculated flasks were sealed air tight and were incubated on a rotary shaker of orbital radius 2.5 cm at 250 rpm and at 30° C. for two days until the turbidity in the medium had developed.
# The cells were harvested by centrifugation at 10,000 ×g at 4° C. for 30 minutes. The cell pellet was washed twice with a 0.15 M phosphate buffer at a pH of 7.0 (containing 0.002 M MgCl2). […]
# A 0.5 ml aliquot of each washed cell suspension (2 mg cells) was put into 10 ml vials at 4° C. which were sealed with a rubber cap. […] Samples of product (3 μl) were withdrawn periodically with a microsyringe and the products were analyzed by gas chromatography (ionization flame detector column).
# [6] = biological target: T1, cell-free fractions of Methylococcus capsulatus (CRL M1, NRRL B-11,219) (Methylococcus capsulatus, UniProt G1UBD1+Q603F1+Q607G3); assay: Epoxidation and hydroxylation activities in cell-free fractions; format: biochemical
# T1 sequence (G1UBD1 33-414): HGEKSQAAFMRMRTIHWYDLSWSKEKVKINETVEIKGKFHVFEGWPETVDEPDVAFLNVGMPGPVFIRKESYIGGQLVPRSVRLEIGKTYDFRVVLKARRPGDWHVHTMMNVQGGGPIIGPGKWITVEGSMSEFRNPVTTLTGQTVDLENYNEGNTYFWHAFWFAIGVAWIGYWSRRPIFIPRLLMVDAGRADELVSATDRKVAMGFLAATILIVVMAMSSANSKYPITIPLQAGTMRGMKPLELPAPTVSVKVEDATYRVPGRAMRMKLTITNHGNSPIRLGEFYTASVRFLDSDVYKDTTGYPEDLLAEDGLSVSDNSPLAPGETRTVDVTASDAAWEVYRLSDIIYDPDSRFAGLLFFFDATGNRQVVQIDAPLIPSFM
# T1 sequence (Q607G3 1-247): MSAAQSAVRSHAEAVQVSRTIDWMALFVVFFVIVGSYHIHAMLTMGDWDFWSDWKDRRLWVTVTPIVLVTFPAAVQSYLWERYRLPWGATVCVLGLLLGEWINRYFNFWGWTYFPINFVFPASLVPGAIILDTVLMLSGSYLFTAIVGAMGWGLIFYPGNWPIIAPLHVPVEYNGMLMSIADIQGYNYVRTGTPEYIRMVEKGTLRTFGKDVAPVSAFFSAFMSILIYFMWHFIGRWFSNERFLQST
# T1 sequence (Q603F1 1-260): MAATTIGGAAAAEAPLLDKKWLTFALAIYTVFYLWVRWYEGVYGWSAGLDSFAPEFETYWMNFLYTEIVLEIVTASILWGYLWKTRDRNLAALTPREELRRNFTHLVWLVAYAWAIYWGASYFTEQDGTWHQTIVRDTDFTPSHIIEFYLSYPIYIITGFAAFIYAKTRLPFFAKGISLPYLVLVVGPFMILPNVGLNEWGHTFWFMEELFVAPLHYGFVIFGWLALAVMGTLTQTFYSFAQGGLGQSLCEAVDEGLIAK
# Experimental: Cells of methane-grown Methylococcus capsulatus (CRL M1, NRRL B-11,219) were obtained by the method of Example 1. […] However, when the cells were disrupted by passing twice through a French pressure cell (1000 Kg. pressure), both activities were found in the crude extract after 10,000×g. centrifugation. All of the activity in the crude extract was collected as a particulate fraction by further centrifugation of the crude extract at 40,000×g. for 90 min. at 4° C.
# [7] = system: Methylobacter capsulatus Y (NRRL B-11,201); assay: Methane hydroxylation and propylene epoxidation by washed cell suspensions; format: cell-based; settings: for Ability to hydroxylate methane or epoxidize C2 -C4 alkenes: methanol-grown washed cells
# [8] = methane-grown washed cells, 30° C.
# [9] = Particulate fraction (10,000 g.-40,000 g.), 1 mg. protein
# [10] = Supernatant fraction of 40,000 g., 2.5 mg. protein
# [11] = Propylene + Methane + O2 (25:25:50 v/v), 15 minutes
smiles,measurement,setting,value
C=CC [Propylene],Propylene Oxide Formed,"[1]; Propylene + Helium + O2 (25:25:50 v/v), 15 minutes",1.6 µmol
same,"Conversion rate, propylene to propylene oxide",[1]; [8],3.6 μmole/hr/mg protein
same,Ability to hydroxylate methane or epoxidize C2 -C4 alkenes,[1],did not possess the ability
same,"Conversion rate, propylene to propylene oxide",[2],2.0 μmole/hr/mg protein
same,"Conversion rate, propylene to propylene oxide",[3]; [8],1.6 μmole/hr/mg protein
same,Ability to hydroxylate methane or epoxidize C2 -C4 alkenes,[3],did not possess the ability
same,"Conversion rate, propylene to propylene oxide",[4],1.4 μmole/hr/mg protein
same,"Conversion rate, propylene to propylene oxide",[5],1.8 μmole/hr/mg protein
same,"Oxidation Rate, Epoxidation of Propylene",[6]; [9],750 μmoles/30 min/assay
same,"Oxidation Rate, Epoxidation of Propylene",[6]; [10],0 μmoles/30 min/assay
same,Ability to hydroxylate methane or epoxidize C2 -C4 alkenes,[7],did not possess the ability
C [Methane],Propylene Oxide Formed,[1]; [11],0.8 µmol
same,% Inhibition of propylene epoxidation,[1]; [11],50%
same,"Conversion rate, methane hydroxylation (methane to methanol)",[1]; [8],1.5 μmole/hr/mg protein
same,Ability to hydroxylate methane or epoxidize C2 -C4 alkenes,[1],did not possess the ability
same,"Conversion rate, methane hydroxylation (methane to methanol)",[2],1.1 μmole/hr/mg protein and 1.8 μmole/hr/mg protein
same,"Conversion rate, methane hydroxylation",[3]; [8],0.7 μmole/hr/mg protein
same,Ability to hydroxylate methane or epoxidize C2 -C4 alkenes,[3],did not possess the ability
same,"Conversion rate, methane hydroxylation",[4],1.8 μmole/hr/mg protein
same,"Conversion rate, methane hydroxylation",[5],1.0 μmole/hr/mg protein
same,"Oxidation Rate, Hydroxylation of Methane",[6]; [9],500 μmoles/30 min/assay
same,"Oxidation Rate, Hydroxylation of Methane",[6]; [10],0 μmoles/30 min/assay
same,"Conversion rate, methane hydroxylation",[7]; [8],1.2 μmole/hr/mg protein
same,Ability to hydroxylate methane or epoxidize C2 -C4 alkenes,[7],did not possess the ability

# Source: US4368267A, “Epoxidation of lower α-olefins” (priority 1980, dated 1983)
